# Where two headings read alike, the source gives them in different places.
# How the values were obtained:
# hOCT1 [1] = biological target: T1, hOCT1 (Homo sapiens, UniProt O15245); assay: Inhibition of hOCT1-mediated substrate uptake in transfected HEK293 cells; format: in vitro ADME; details: for In vivo DDI study recommendation, hOCT1: FDA-recommended criteria
# T1 construct: expressed in transfected cells
# T1 sequence (O15245 1-554): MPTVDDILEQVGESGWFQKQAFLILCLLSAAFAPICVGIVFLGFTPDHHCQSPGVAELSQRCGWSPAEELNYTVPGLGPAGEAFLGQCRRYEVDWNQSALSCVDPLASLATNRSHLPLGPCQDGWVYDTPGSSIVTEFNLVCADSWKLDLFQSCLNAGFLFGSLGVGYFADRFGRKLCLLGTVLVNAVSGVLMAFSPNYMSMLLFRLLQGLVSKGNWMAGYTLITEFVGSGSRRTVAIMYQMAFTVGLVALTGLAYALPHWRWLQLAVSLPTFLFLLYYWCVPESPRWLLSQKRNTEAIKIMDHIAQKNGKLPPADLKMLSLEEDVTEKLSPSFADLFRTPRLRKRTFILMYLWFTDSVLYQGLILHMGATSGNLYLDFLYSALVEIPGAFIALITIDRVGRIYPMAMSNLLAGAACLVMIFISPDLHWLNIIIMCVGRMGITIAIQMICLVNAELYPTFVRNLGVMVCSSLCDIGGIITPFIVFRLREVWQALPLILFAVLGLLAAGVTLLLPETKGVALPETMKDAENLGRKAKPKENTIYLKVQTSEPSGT
# hOCT3 = biological target: T2, hOCT3 (Homo sapiens, UniProt O75751); assay: Inhibition of hOCT3-mediated substrate uptake in transfected HEK293 cells; format: in vitro ADME; details: for In vivo DDI study recommendation, hOCT3: FDA-recommended criteria
# T2 construct: expressed in transfected cells
# T2 sequence (O75751 1-556): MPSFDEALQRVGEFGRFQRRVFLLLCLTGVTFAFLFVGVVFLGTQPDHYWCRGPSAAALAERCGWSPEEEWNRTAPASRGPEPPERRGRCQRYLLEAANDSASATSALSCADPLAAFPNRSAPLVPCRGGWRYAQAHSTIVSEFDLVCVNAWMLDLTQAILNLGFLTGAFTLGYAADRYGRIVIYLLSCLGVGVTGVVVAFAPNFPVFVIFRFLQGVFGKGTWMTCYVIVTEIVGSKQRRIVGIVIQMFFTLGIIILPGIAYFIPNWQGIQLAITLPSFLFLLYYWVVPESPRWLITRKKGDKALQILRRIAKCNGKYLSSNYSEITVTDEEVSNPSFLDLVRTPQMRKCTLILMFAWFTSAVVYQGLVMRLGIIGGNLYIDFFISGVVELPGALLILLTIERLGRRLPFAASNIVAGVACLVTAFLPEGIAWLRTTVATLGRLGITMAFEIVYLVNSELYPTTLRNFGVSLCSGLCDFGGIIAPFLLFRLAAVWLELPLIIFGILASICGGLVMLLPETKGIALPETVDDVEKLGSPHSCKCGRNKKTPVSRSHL
# hMATE1 = biological target: T3, hMATE1 (Homo sapiens, UniProt Q96FL8); assay: Inhibition of hMATE1-mediated substrate uptake in transfected HEK293 cells (pH 8.0); format: in vitro ADME; details: for In vivo DDI study recommendation, hMATE1: FDA-recommended criteria
# T3 construct: expressed in transfected cells
# T3 sequence (Q96FL8 1-570): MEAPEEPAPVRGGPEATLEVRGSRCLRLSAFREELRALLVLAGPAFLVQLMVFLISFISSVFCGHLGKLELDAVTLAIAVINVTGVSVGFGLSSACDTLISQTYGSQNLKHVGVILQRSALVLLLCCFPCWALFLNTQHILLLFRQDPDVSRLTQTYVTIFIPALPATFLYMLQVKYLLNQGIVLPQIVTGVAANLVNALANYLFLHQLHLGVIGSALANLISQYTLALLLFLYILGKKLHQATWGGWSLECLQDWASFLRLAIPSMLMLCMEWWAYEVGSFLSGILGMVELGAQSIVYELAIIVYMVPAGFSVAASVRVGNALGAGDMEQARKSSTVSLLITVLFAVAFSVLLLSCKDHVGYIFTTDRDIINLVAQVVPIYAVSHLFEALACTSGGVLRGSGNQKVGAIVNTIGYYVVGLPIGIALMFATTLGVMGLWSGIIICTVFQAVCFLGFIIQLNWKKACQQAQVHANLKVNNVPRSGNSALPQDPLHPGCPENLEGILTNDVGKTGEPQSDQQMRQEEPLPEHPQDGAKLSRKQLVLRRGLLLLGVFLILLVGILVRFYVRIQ
# hMATE2-K = biological target: T4, hMATE2-K (Homo sapiens, UniProt Q86VL8); assay: Inhibition of hMATE2-K-mediated substrate uptake in transfected HEK293 cells (pH 8.0); format: in vitro ADME; details: for In vivo DDI study recommendation, hMATE2-K: FDA-recommended criteria
# T4 construct: expressed in transfected cells
# T4 sequence (Q86VL8 1-566 isoform Q86VL8-3): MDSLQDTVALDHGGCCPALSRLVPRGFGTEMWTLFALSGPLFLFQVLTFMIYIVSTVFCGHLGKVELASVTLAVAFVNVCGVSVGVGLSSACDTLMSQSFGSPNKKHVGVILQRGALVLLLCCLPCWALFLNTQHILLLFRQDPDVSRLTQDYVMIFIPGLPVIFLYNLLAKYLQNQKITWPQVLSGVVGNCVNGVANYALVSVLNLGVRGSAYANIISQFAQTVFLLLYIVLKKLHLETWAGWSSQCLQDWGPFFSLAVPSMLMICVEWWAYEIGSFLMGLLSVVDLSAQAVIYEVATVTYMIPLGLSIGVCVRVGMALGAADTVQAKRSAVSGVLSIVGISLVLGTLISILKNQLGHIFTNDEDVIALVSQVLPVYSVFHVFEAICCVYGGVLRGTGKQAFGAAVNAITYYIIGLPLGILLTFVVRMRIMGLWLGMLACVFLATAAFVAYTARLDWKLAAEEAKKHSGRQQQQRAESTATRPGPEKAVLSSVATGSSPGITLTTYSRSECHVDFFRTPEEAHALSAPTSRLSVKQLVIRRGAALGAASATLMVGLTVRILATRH
# hOCT1 [2] = biological target: T1, hOCT1; set-up: method as in PMID 32487736; details: substrate mIBG; HEK293; read-out: IC50, hOCT1-mediated mIBG uptake; cited from earlier work
# hOCT2 [3] = biological target: T5, hOCT2 (Homo sapiens, UniProt O15244); assay: Inhibition of hOCT2-mediated substrate uptake in transfected HEK293 cells; format: in vitro ADME; set-up: expressed in transfected cells; details: for In vivo DDI study recommendation, hOCT2: FDA-recommended criteria
# T5 sequence (O15244 1-555): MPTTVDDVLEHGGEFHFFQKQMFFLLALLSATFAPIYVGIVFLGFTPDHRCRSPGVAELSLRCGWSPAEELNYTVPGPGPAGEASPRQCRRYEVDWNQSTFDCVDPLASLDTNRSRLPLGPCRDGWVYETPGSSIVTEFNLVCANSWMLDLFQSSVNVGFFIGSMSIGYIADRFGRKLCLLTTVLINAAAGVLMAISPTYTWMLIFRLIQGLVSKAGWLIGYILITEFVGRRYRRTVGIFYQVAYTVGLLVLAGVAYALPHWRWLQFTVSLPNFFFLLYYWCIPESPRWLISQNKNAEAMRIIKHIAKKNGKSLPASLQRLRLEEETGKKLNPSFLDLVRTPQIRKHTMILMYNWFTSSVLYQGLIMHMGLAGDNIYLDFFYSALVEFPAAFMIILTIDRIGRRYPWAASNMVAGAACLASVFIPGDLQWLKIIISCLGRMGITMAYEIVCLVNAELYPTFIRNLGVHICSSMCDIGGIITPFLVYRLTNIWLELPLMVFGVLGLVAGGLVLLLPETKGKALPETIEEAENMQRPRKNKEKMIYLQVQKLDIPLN
# hOCT2 [4] = biological target: T5, hOCT2; details: cited from earlier work
# [5] = HEK293, 20 µM inhibitor, 1 µM mIBG, 2 min, 37 °C
smiles,measurement,setting,value
C[C@@H](Oc1cc(-c2cnn(C3CCNCC3)c2)cnc1N)c1c(Cl)ccc(F)c1Cl [Crizotinib],"substrate dependency, hOCT1: more potent with metformin than with MPP+",hOCT1 [1]; IC50 ratio MPP+/metformin,~21 fold
same,"substrate dependency, hOCT1: more potent with metformin than with mIBG",hOCT1 [1]; IC50 ratio mIBG/metformin,approximately 8 fold
same,IC50,"hOCT1 [1]; substrate 8.9 µM [14C]metformin, HEK293, 2 min, 37 °C, mean ± SD, read-out: IC50, hOCT1-mediated metformin uptake",4.98 ± 0.15 µM
same,"In vivo DDI study recommendation, hOCT1",hOCT1 [1]; substrate MPP+,No
same,"In vivo DDI study recommendation, hOCT1",hOCT1 [1]; substrate mIBG,No
same,"In vivo DDI study recommendation, hOCT1",hOCT1 [1]; substrate metformin,No
same,"substrate dependency, hOCT3: differences in IC50 values across substrates","hOCT3; metformin, mIBG, MPP+",≤ 5 fold
same,"In vivo DDI study recommendation, hOCT3",hOCT3; substrate MPP+,No
same,"In vivo DDI study recommendation, hOCT3",hOCT3; substrate mIBG,No
same,"In vivo DDI study recommendation, hOCT3",hOCT3; substrate metformin,No
same,"In vivo DDI study recommendation, hMATE1",hMATE1; substrate MPP+,No
same,"In vivo DDI study recommendation, hMATE1",hMATE1; substrate mIBG,No
same,"In vivo DDI study recommendation, hMATE1",hMATE1; substrate metformin,No
same,"substrate dependency, hMATE2-K: more potent with metformin than with MPP+",hMATE2-K; IC50 ratio MPP+/metformin,~12 fold
same,"substrate dependency, hMATE2-K: more potent with metformin than with mIBG",hMATE2-K; IC50 ratio mIBG/metformin,approximately 5 fold
same,"In vivo DDI study recommendation, hMATE2-K",hMATE2-K; substrate MPP+,No
same,"In vivo DDI study recommendation, hMATE2-K",hMATE2-K; substrate mIBG,No
same,"In vivo DDI study recommendation, hMATE2-K",hMATE2-K; substrate metformin,No
same,IC50,hOCT1 [2],40.3 ± 5.5 µM
same,"substrate dependency, hOCT2: more potent with metformin than with MPP+",hOCT2 [3]; IC50 ratio MPP+/metformin,~16 fold
same,"substrate dependency, hOCT2: more potent with metformin than with mIBG",hOCT2 [3]; IC50 ratio mIBG/metformin,approximately 2 fold
same,"In vivo DDI study recommendation, hOCT2",hOCT2 [3]; substrate MPP+,No
same,"In vivo DDI study recommendation, hOCT2",hOCT2 [3]; substrate mIBG,No
same,"In vivo DDI study recommendation, hOCT2",hOCT2 [3]; substrate metformin,No
C[C@H]1Oc2cc(cnc2N)-c2c(nn(C)c2C#N)CN(C)C(=O)c2ccc(F)cc21 [lorlatinib],inhibition at 20 µM,hOCT1 [1]; [5],≤ 50%
same,inhibition at 20 µM,"hOCT3; HEK293, 20 µM inhibitor, 1 µM mIBG, 2 min, 37 °C, read-out: inhibition of mIBG uptake by hOCT3",≤ 50%
same,inhibition at 20 µM,hMATE1; [5],≤ 50%
same,inhibition at 20 µM,hMATE2-K; [5],≤ 50%
same,inhibition at 20 µM,hOCT2 [3]; [5],≤ 50%
CN/C(=N/CCSCc1nc[nH]c1C)NC#N [cimetidine],higher potency on OCT2 with atenolol as substrate compared with metformin,hOCT2 [4],10 fold
